# Reference: ChEMBL document CHEMBL1131515, “2-Substituted-4-methoxybenzimidazole-based PDE4 inhibitors” (Bioorg Med Chem Lett, 1998)
# Legend:
# Mus musculus = organism: Mus musculus; assay: Inhibition of lipopolysaccharide (LPS) stimulated TNF-alpha release in mice after peroral dose; assay type: functional; conditions: po
# [1] = target: Phosphodiesterase 4 (Cavia porcellus); assay: Inhibition of PDE4 from guinea pig macrophages
# [2] = Bioavailability in mouse; assay type: ADME, organism-based; conditions: in vivo
# [3] = Inhibition of Rolipram binding to PDE4
# [4] = target: Phosphodiesterase 4 (Cavia porcellus); assay: Inhibition of Phosphodiesterase 4 (PDE4) from guinea pig macrophages
# Phosphodiesterase 4 = Phosphodiesterase 4 (Homo sapiens, UniProt P27815+Q08499+Q07343+Q08493); assay: Inhibition of Phosphodiesterase 4 (PDE4) from guinea pig macrophages; assay type: protein assay, Cavia porcellus; conditions: target entry is the homologue from another species
# Rattus norvegicus [5] = organism: Rattus norvegicus; assay: Inhibition of streptococcal cell wall(SCW) induced arthritis in rat; assay type: functional
# [6] = Compound was evaluated for its bioavailability in mice at a dose of 1 mg/kg; assay type: ADME, organism-based; conditions: mouse, in vivo
# [7] = Rapid plasma clearance of compound was determined; assay type: ADME
# Rattus norvegicus [8] = organism: Rattus norvegicus; assay: Inhibition of streptococcal cell wall(SCW) induced arthritis in rat on peroral dose; assay type: functional; conditions: po
IC50 [1] [nM],Ki [3] [nM],SMILES,also measured
27,24,COc1ccc(C(=O)Nc2c(Cl)cncc2Cl)c2[nH]c(C(C)C)nc12,ED50 (Mus musculus): 10 mg/kg; bioavailability [2]: 16%
450,712,COc1ccc(C(=O)Nc2c(Cl)cncc2Cl)c2[nH]c(C)nc12,–
540,340,COc1ccc(C(=O)Nc2c(Cl)cncc2Cl)c2c1nc(C1CCCC1)n2C,–
–,24,COc1ccc(C(=O)Nc2c(Cl)c[n+]([O-])cc2Cl)c2[nH]c(C(C)C)nc12,IC50 [4]: 28 nM
100,540,COc1ccc(C(=O)Nc2c(Cl)cncc2Cl)c2[nH]c(C3CCCC3)nc12,–
4400,10000,COc1ccc(C(=O)Nc2c(Cl)cncc2Cl)c2nc(C3CCCC3)n(C)c12,–
–,–,OCCN(CCO)c1nc(N2CCCCC2)c2nc(N(CCO)CCO)nc(N3CCCCC3)c2n1 [DIPYRIDAMOLE],IC50 (Phosphodiesterase 4): 0.5 µM
–,25,COCc1nc2c(OC)ccc(C(=O)Nc3c(Cl)cncc3Cl)c2[nH]1,ED50 (Rattus norvegicus [5]): 10 mg/kg; ED50 (Mus musculus): 2 mg/kg; bioavailability [2]: 35%
–,45,COCc1nc2c(OC)ccc(C(=O)Nc3c(Cl)c[n+]([O-])cc3Cl)c2[nH]1,bioavailability [6]: 87%; ED50 (Mus musculus): 7 mg/kg; half-life [7]: 150 min; ED50 (Rattus norvegicus [8]): 5 mg/kg; IC50 [4]: 45 nM
23,56,COc1ccc(C(=O)Nc2c(Cl)cncc2Cl)c2[nH]c(CCc3ccccc3)nc12,–
2,1,COc1ccc(C(=O)Nc2c(Cl)cncc2Cl)c2[nH]c(C3CC3)nc12,–
25,75,COc1ccc(C(=O)Nc2c(Cl)cncc2Cl)c2[nH]c(Cc3ccccc3)nc12,–

SMILES,IC50 [1] [nM],Ki [3] [nM],also measured
COc1ccc(C(=O)Nc2c(Cl)cncc2Cl)cc1OC1CCCC1,–,1,bioavailability [2]: < 5%
